The values that follow are results of earlier work, collected in US20230309918A1, “TREATING PATHOGENIC INFECTIONS” (priority 2020, published 2023).

SMILES strings stand for the structures.

The conditions of series [1]: kidneys.
The subject of series [2] is Borrelia burgdorferi. To be noted: one animal study (Pothineni et al., Sci Rep 2020).
Series [3] has as its system HSV-1 IE gene expression. The settings on record: diminishes the ability of the virus to launch the lytic infectious cycle.
For series [4] the following is noted: in vivo.
The test system of series [5] is NF-κB. The settings on record: pro-inflammatory signaling pathway involved in Lyme-induced inflammation.

For the compound `O=c1c(O)c(-c2ccc(O)c(O)c2)oc2cc(O)cc(O)c12` [Quercetin], the solubility in water result is recorded as “poorly soluble”. Regarding `Nc1nc2c(ncn2COCCO)c(=O)[nH]1` [Acyclovir], the toxic side effects entry in series [1] is given as “toxic side effects in the kidneys”. Take `CC1(C)S[C@@H]2[C@H](NC(=O)[C@H](NC(=O)N3CCNC3=O)c3ccccc3)C(=O)N2[C@H]1C(=O)O` [azlocillin]: the “killing of disease-causing bacteria Borrelia burgdorferi” value in series [2] was “completely kills off”. For the compound `COc1cc(/C=C/C(=O)CC(=O)/C=C/c2ccc(O)c(OC)c2)ccc1O` [Curcumin], the “effect on HSV-1 IE gene expression” value in series [3] was “affect HSV-1 IE gene expression”. For the same compound, the oral bioavailability entry in series [4] is given as “poor”. The “activation of NF-κB” value in series [5] was “blocking the activation of NF-κB”.
